Test results published in ChEMBL document CHEMBL1124541, “Antibacterials. Synthesis and structure-activity studies of 3-aryl-2-oxooxazolidines. 1. The "B" group” (1989).
Values after ≈ are worked out from the molar mass of the structure shown.

Columns and labels:
Staphylococcus aureus [1] = assay: In vitro minimum inhibitory concentration against Staphylococcus aureus (SFCO-1a); format: functional
Enterococcus faecalis [2] = assay: In vitro minimum inhibitory concentration against Enterococcus faecalis (STCO-19); format: functional
Staphylococcus aureus [3] = tested on: Staphylococcus aureus
Enterococcus faecalis [4] = tested on: Enterococcus faecalis

Compound	MIC (Staphylococcus aureus [1])	MIC (Enterococcus faecalis [2])	MIC (Staphylococcus aureus [3])	MIC (Enterococcus faecalis [4])
CC(=O)c1ccc(N2C[C@H](CNC(=O)C3CC3)OC2=O)cc1	8 µg/mL (≈ 26.5 µM)	4 µg/mL (≈ 13.2 µM)	–	–
CC1CN(c2ccc(C(C)C)cc2)C(=O)O1 (stereo not given)	128 µg/mL (≈ 584 µM)	128 µg/mL (≈ 584 µM)	–	–
CC(=O)NCC1CN(c2ccc(S(N)(=O)=O)cc2)C(=O)O1 (stereo not given)	32 µg/mL (≈ 102 µM)	16 µg/mL (≈ 51.1 µM)	–	–
CC(=O)c1ccc(N2C[C@H](CNC(=O)C(Cl)Cl)OC2=O)cc1	2 µg/mL (≈ 5.79 µM)	2 µg/mL (≈ 5.79 µM)	–	–
CC(=O)NCC1CN(c2ccc(C(C)C)cc2)C(=O)O1 (stereo not given)	4 µg/mL (≈ 14.5 µM)	4 µg/mL (≈ 14.5 µM)	–	–
COC(=O)c1nnn(CC2CN(c3ccc(C(C)=O)cc3)C(=O)O2)c1C(=O)OC (stereo not given)	> 128 µg/mL	> 128 µg/mL	–	–
COC(=O)NC[C@H]1CN(c2ccc(C(C)=O)cc2)C(=O)O1	4 µg/mL (≈ 13.7 µM)	4 µg/mL (≈ 13.7 µM)	–	–
CC(C)c1ccc(N2CC(CCl)OC2=O)cc1 (stereo not given)	64 µg/mL (≈ 252 µM)	64 µg/mL (≈ 252 µM)	–	–
C=CC1CN(c2ccc(C(C)=O)cc2)C(=O)O1 (stereo not given)	> 128 µg/mL	> 128 µg/mL	–	–
CS(=O)(=O)c1ccc(N2CC(CO)OC2=O)cc1 (stereo not given)	16 µg/mL (≈ 59 µM)	16 µg/mL (≈ 59 µM)	–	–
NS(=O)(=O)c1ccc(N2CC(CCl)OC2=O)cc1 (stereo not given)	16 µg/mL (≈ 55 µM)	> 128 µg/mL	–	–
CC(=O)c1ccc(N2C[C@H](CNC(=O)C(C)C)OC2=O)cc1	8 µg/mL (≈ 26.3 µM)	16 µg/mL (≈ 52.6 µM)	–	–
CCCC(=O)OCC1CN(c2ccc(C(C)=O)cc2)C(=O)O1 (stereo not given)	64 µg/mL (≈ 210 µM)	> 128 µg/mL	–	–
CN[C@H](CC(C)C)C(=O)N[C@H]1C(=O)N[C@@H](CC(N)=O)C(=O)N[C@H]2C(=O)N[C@H]3C(=O)N[C@H](C(=O)N[C@H](C(=O)O)c4cc(O)cc(O)c4-c4cc3ccc4O)[C@H](O)c3ccc(c(Cl)c3)Oc3cc2cc(c3O[C@@H]2O[C@H](CO)[C@@H](O)[C@H](O)[C@H]2O[C@H]2C[C@](C)(N)[C@H](O)[C@H](C)O2)Oc2ccc(cc2Cl)[C@H]1O [VANCOMYCIN]	–	2 µg/mL (≈ 1.38 µM)	–	–
CS(=O)(=O)c1ccc(N2CC(CCl)OC2=O)cc1 (stereo not given)	8 µg/mL (≈ 27.6 µM)	4 µg/mL (≈ 13.8 µM)	–	–
CC(=O)OCC1CN(c2ccc(C(C)C)cc2)C(=O)O1 (stereo not given)	128 µg/mL (≈ 462 µM)	128 µg/mL (≈ 462 µM)	–	–
CC(=O)c1ccc(N2CC(CF)OC2=O)cc1 (stereo not given)	64 µg/mL (≈ 270 µM)	128 µg/mL (≈ 540 µM)	–	–
CSc1ccc(N2CC(CO)OC2=O)cc1 (stereo not given)	128 µg/mL (≈ 535 µM)	128 µg/mL (≈ 535 µM)	–	–
NS(=O)(=O)c1ccc(N2CC(CO)OC2=O)cc1 (stereo not given)	128 µg/mL (≈ 470 µM)	128 µg/mL (≈ 470 µM)	–	–
CC(C)c1ccc(N2CC(CO)OC2=O)cc1 (stereo not given)	64 µg/mL (≈ 272 µM)	32 µg/mL (≈ 136 µM)	–	–

Compound	MIC (Staphylococcus aureus [1])	MIC (Enterococcus faecalis [2])	MIC (Staphylococcus aureus [3])	MIC (Enterococcus faecalis [4])
COCC(=O)NC[C@H]1CN(c2ccc(C(C)=O)cc2)C(=O)O1	32 µg/mL (≈ 104 µM)	32 µg/mL (≈ 104 µM)	–	–
CC(=O)c1ccc(N2CC(CCl)OC2=O)cc1 (stereo not given)	32 µg/mL (≈ 126 µM)	64 µg/mL (≈ 252 µM)	–	–
CC(=O)c1ccc(N2CC(CN)OC2=O)cc1.Cl (stereo not given)	> 128 µg/mL	> 128 µg/mL	–	–
CS(=O)(=O)c1ccc(N2CC(CN=[N+]=[N-])OC2=O)cc1 (stereo not given)	16 µg/mL (≈ 54 µM)	8 µg/mL (≈ 27 µM)	–	–
CCC(=O)NC[C@H]1CN(c2ccc(C(C)=O)cc2)C(=O)O1	4 µg/mL (≈ 13.8 µM)	4 µg/mL (≈ 13.8 µM)	–	–
CSc1ccc(N2CC(CNC(C)=O)OC2=O)cc1 (stereo not given)	4 µg/mL (≈ 14.3 µM)	4 µg/mL (≈ 14.3 µM)	–	–
CSc1ccc(N2CC(C)OC2=O)cc1 (stereo not given)	> 128 µg/mL	> 128 µg/mL	–	–
CC(=O)c1ccc(N2C[C@H](CNC(=O)OC(C)(C)C)OC2=O)cc1	128 µg/mL (≈ 383 µM)	128 µg/mL (≈ 383 µM)	–	–
CC(=O)c1ccc(N2CC(CN3CCOCC3)OC2=O)cc1 (stereo not given)	> 128 µg/mL	> 128 µg/mL	–	–
CC(=O)c1ccc(N2C[C@H](CNC(N)=O)OC2=O)cc1	4 µg/mL (≈ 14.4 µM)	1 µg/mL (≈ 3.61 µM)	–	–
GENTAMICIN	–	–	0.25 µg/mL	16 µg/mL
CC1CN(c2ccc(S(C)(=O)=O)cc2)C(=O)O1 (stereo not given)	64 µg/mL (≈ 251 µM)	128 µg/mL (≈ 501 µM)	–	–
CC(=O)NCC1CN(c2ccc(S(C)(=O)=O)cc2)C(=O)O1 (stereo not given)	4 µg/mL (≈ 12.8 µM)	4 µg/mL (≈ 12.8 µM)	–	–
CC(=O)c1ccc(N2CC(CN3C(=O)c4ccccc4C3=O)OC2=O)cc1 (stereo not given)	> 128 µg/mL	> 128 µg/mL	–	–
C[S+]([O-])c1ccc(N2CC(CCl)OC2=O)cc1 (stereo not given)	32 µg/mL (≈ 117 µM)	32 µg/mL (≈ 117 µM)	–	–
CC(=O)c1ccc(N2CC(COP(=O)(O)O)OC2=O)cc1 (stereo not given)	> 128 µg/mL	> 128 µg/mL	–	–
CC(=O)c1ccc(N2C[C@H](CNC=O)OC2=O)cc1	4 µg/mL (≈ 15.3 µM)	8 µg/mL (≈ 30.5 µM)	–	–
CC(=O)c1ccc(N2C[C@H](CNC(=O)CC#N)OC2=O)cc1	16 µg/mL (≈ 53.1 µM)	8 µg/mL (≈ 26.6 µM)	–	–
CC(=O)c1ccc(N2CC(C)OC2=O)cc1 (stereo not given)	> 128 µg/mL	> 128 µg/mL	–	–
CCC1CN(c2ccc(S(C)(=O)=O)cc2)C(=O)O1 (stereo not given)	128 µg/mL (≈ 475 µM)	128 µg/mL (≈ 475 µM)	–	–

Compound	MIC (Staphylococcus aureus [1])	MIC (Enterococcus faecalis [2])	MIC (Staphylococcus aureus [3])	MIC (Enterococcus faecalis [4])
CC(=O)c1ccc(N2CC(COS(=O)(=O)c3ccc(C)cc3)OC2=O)cc1 (stereo not given)	8 µg/mL (≈ 20.5 µM)	8 µg/mL (≈ 20.5 µM)	–	–
CC(=O)c1ccc(N2C[C@H](CNC(=O)CSC#N)OC2=O)cc1	32 µg/mL (≈ 96 µM)	32 µg/mL (≈ 96 µM)	–	–
CSc1ccc(N2CC(CCl)OC2=O)cc1 (stereo not given)	> 128 µg/mL	> 128 µg/mL	–	–
CC(=O)NC[C@H]1CN(c2ccc(C(C)=O)cc2)C(=O)O1 [DUP-721]	0.5 µg/mL (≈ 1.81 µM)	1 µg/mL (≈ 3.62 µM)	–	–
CC(=O)CC(=O)NC[C@H]1CN(c2ccc(C(C)=O)cc2)C(=O)O1	8 µg/mL (≈ 25.1 µM)	16 µg/mL (≈ 50.3 µM)	–	–
C[S+]([O-])c1ccc(N2CC(CO)OC2=O)cc1 (stereo not given)	64 µg/mL (≈ 251 µM)	64 µg/mL (≈ 251 µM)	–	–
CC(=O)NCC(=O)NC[C@H]1CN(c2ccc(C(C)=O)cc2)C(=O)O1	128 µg/mL (≈ 384 µM)	> 128 µg/mL	–	–
CCC1CN(c2ccc(C(C)C)cc2)C(=O)O1 (stereo not given)	> 128 µg/mL	> 128 µg/mL	–	–
CC(=O)c1ccc(N2CC(CO)OC2=O)cc1 (stereo not given)	16 µg/mL (≈ 68 µM)	16 µg/mL (≈ 68 µM)	–	–
CC(=O)c1ccc(N2C[C@H](CNC(=O)N(C)C)OC2=O)cc1	128 µg/mL (≈ 419 µM)	128 µg/mL (≈ 419 µM)	–	–
CCCC(=O)NC[C@H]1CN(c2ccc(C(C)=O)cc2)C(=O)O1	8 µg/mL (≈ 26.3 µM)	8 µg/mL (≈ 26.3 µM)	–	–
CC1=C(C(=O)O)N2C(=O)[C@@H](NC(=O)[C@H](N)c3ccccc3)[C@H]2SC1 [CEPHALEXIN ANHYDROUS]	0.5 µg/mL (≈ 1.44 µM)	64 µg/mL (≈ 184 µM)	–	–
[N-]=[N+]=NCC1CN(c2ccc(S(N)(=O)=O)cc2)C(=O)O1 (stereo not given)	32 µg/mL (≈ 108 µM)	64 µg/mL (≈ 215 µM)	–	–
CS(=O)(=O)c1ccc(N2CC(CN)OC2=O)cc1 (stereo not given)	> 128 µg/mL	> 128 µg/mL	–	–
CC(=O)NCC1CN(c2ccc([S+](C)[O-])cc2)C(=O)O1 (stereo not given)	4 µg/mL (≈ 13.5 µM)	4 µg/mL (≈ 13.5 µM)	–	–
CC(=O)c1ccc(N2CC(CN)OC2=O)cc1 (stereo not given)	> 128 µg/mL	> 128 µg/mL	–	–
CC(=O)c1ccc(N2CC(CN=[N+]=[N-])OC2=O)cc1 (stereo not given)	> 128 µg/mL	> 128 µg/mL	–	–
CC(C)c1ccc(N2CC(CN=[N+]=[N-])OC2=O)cc1 (stereo not given)	> 128 µg/mL	> 128 µg/mL	–	–
